The values below come from BindingDB's records for patent US10383835 (University of California, 2019).

This assay addresses T1, Bifunctional epoxide hydrolase 2 (Sus scrofa, UniProt Q6Q2C2).
T1 sequence (Q6Q2C2 whole entry): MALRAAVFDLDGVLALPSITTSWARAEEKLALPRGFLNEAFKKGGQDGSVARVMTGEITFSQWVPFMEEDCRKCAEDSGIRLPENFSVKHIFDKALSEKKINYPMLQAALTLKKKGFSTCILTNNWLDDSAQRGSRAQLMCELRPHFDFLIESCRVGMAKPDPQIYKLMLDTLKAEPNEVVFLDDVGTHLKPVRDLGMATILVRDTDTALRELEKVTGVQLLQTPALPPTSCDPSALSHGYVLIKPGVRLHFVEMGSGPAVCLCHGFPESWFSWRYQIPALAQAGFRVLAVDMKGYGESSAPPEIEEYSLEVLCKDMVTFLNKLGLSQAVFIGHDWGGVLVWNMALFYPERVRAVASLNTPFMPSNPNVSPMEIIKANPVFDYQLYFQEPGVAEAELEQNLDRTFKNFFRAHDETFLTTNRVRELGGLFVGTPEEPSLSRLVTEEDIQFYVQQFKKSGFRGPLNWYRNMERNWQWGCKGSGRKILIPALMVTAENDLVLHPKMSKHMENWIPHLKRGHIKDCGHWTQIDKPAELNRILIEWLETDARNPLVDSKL
The assay is described as follows: Inhibition Assay.

From the text: The enzyme also can be detected based on the binding of specific ligands to the catalytic site which either immobilize the enzyme or label it with a probe such as dansyl, fluoracein, luciferase, green fluorescent protein or other reagent. The enzyme can be assayed by its hydration of EETs, its hydrolysis of an epoxide to give a colored product. The assays are normally carried out with a recombinant enzyme following affinity purification.

The IC50 is the concentration that inhibits the measured activity by half. Lower therefore signals higher potency. On to `CC(=O)N1CCC(NC(=O)Nc2ccc(OC(F)(F)F)cc2)CC1` [US10383835, Compound 1555], for which 201 nM corresponded to half-maximal inhibition (IC50).
